Reference: patent US10624829B2, “VEGFC production promoter” (Shiseido Company, Ltd., priority 2012, dated 2020)

Columns and labels:
VEGFC = assay: VEGFC-inducing activity in HaCaT cells (VEGF-C ELISA of culture supernatant, normalised to cell number); assay type: cell-based, human; conditions: aromatic final concentration 0.001% to 0.01%, 48 hours culture, ELISA of supernatant divided by alamar blue fluorescence, values only in FIG. 1
Protocol: As is described in detail in the subsequent examples, screening for agents that induce a lymph vessel activating factor in the form of VEGFC was carried out by allowing various types of candidate aromatics to act on human epidermis-derived cultured cells in the form of HaCaT cells, quantifying VEGFC, and selecting aromatics having VEGFC-inducing activity as active ingredients by using the amount of VEGFC as an indicator of VEGFC-inducing activity.
Human-derived cultured cells in the form of HaCaT cells (German Cancer Research Center, Heidelberg, Germany) were cultured in DMEM medium (Gibco Low Glucose DMEM™, Life Technologies Inc.) containing 10% FBS (Standard Fetal Bovine Serum, Hyclone Laboratories Inc.) and disseminated in a 24-well plate to 15×10^4 cells/well. The medium was replaced with serum-free DMEM 24 hours after dissemination followed by culturing for 24 hours. […] The culture supernatant was recovered after culturing for 48 hours and the amount of VEGFC in the culture supernatant was quantified in accordance with the protocol of an ELISA kit (Quanikine® Human VEGF-C Immunoassay (R&D Systems Inc., Minneapolis, Minn.)). In addition, alamar blue (TREK Diagnostic Systems, Inc., Cleveland, US) was added to the cells after recovering the culture supernatant followed by measuring the number of cells based on their fluorescence intensity (Ex: 544 nm, Em: 590 nm). […]

HaCaT cells = assay: Cytotoxicity / cell number by alamar blue fluorescence in HaCaT cells; assay type: cell-based, human; conditions: aromatic final concentration 0.001% to 0.01%, 48 hours, alamar blue (Ex: 544 nm, Em: 590 nm)
Protocol: Human-derived cultured cells in the form of HaCaT cells (German Cancer Research Center, Heidelberg, Germany) were cultured in DMEM medium (Gibco Low Glucose DMEM™, Life Technologies Inc.) containing 10% FBS (Standard Fetal Bovine Serum, Hyclone Laboratories Inc.) and disseminated in a 24-well plate to 15×10^4 cells/well. The medium was replaced with serum-free DMEM 24 hours after dissemination followed by culturing for 24 hours. Subsequently, each aromatic dissolved in ethanol was added (aromatic final concentration: 0.001% to 0.01%). Ethanol was used as a control. The culture supernatant was recovered after culturing for 48 hours and the amount of VEGFC in the culture supernatant was quantified in accordance with the protocol of an ELISA kit (Quanikine® Human VEGF-C Immunoassay (R&D Systems Inc., Minneapolis, Minn.)). In addition, alamar blue (TREK Diagnostic Systems, Inc., Cleveland, US) was added to the cells after recovering the culture supernatant followed by measuring the number of cells based on their fluorescence intensity (Ex: 544 nm, Em: 590 nm). The amount of VEGFC in the supernatant was divided by fluorescence intensity, and the relative VEGFC-inducing activity per cell based on a value of 100 for the control (ethanol) is shown in FIG. 1.

Row | Structure (SMILES) | relative VEGFC-inducing activity per cell based on a value of 100 for the control (ethanol) (VEGFC) | cytotoxicity (HaCaT cells)
1 | CC(C)=CC1CC(C)CCO1 (stereo not shown) [rose oxide, Rose oxide] | demonstrated VEGFC-inducing activity | without demonstrating cytotoxicity
2 | CC(=O)OCCC(C)CCC=C(C)C (stereo not shown) [citronellyl acetate, Citronellyl acetate] | demonstrated VEGFC-inducing activity | without demonstrating cytotoxicity
